From patent US20250122191A1, “COMPOUNDS AS BCL-2 INHIBITORS” (Fochon Biosciences, Ltd, priority 2021, published 2025)
pIC50: −log10 of the molar value.

How the values were obtained:
Assay type in all cases: cell-based
[1] = test system: Toledo cells; assay: Cell proliferation assay (MTS), Toledo cells; conditions: Homo sapiens, 72 h
Outline: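 Toledo cells (RPMI-1640, 10% FBS) seeded at 30000 cells/well, rested 4 h, then exposed 72 h at 37 °C, 5% CO2 to compound at nine final concentrations, 1.5–10000 nM. Viability by MTS (2 h), absorbance at 490 nm. IC50 from the concentration-response.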

[2] = test system: RS4;11-BCL-2 G101V cells; assay: Cell proliferation assay (MTS), RS4;11-BCL-2 G101V engineered cells; conditions: Homo sapiens, 120 h, read-out: RS4, 11 BCL2-G101V IC50
Outline: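 Proliferation IC50 in RS4;11 lines engineered with BCL-2 mutations, measured by MTS at 490 nm after 72 h (D103E, D103Y) or 120 h (G101V, F104L) compound treatment at 37 °C.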

[3] = test system: RS4;11-BCL-2 D103E cells; assay: Cell proliferation assay (MTS), RS4;11-BCL-2 D103E engineered cells; conditions: Homo sapiens, 72 h, read-out: RS4, 11 BCL2-D103E IC50
Source text: MTS testing kit was purchased from Promega (Madison, WI, USA). The RPMI-1640, Fetal bovine serum and Penicillin-Streptomycin were purchased from BI (Biological Industries, Beit Haemek, Israel). Puromycin was purchased from Beyotime (shanghai, China). Dimethyl sulfoxide (DMSO) was purchased from Sigma (St. Louis., MO, USA). RS4;11-BCL-2 G101V (Cobioer Lot. #: CBD2021063013P4), RS4;11-BCL-2 D103E (Cobioer Lot. #: CBD2021063013P4), RS4;11-BCL-2 D103Y (Cobioer Lot. #: CBD2022012101P4) and RS4;11-BCL-2 F104L (Cobioer Lot. #: CBD2021063014P4) cells were cultured in RPMI1640 supplemented with 1 ug/mL puromycin, 100 U/mL Penicillin-Streptomycin and 10% FBS.
To investigate whether a compound is able to inhibit the activity of BCL-2 mutation in cells, a mechanism-based assay using engineered cell lines stably overexpressing BCL-2 mutation (RS4;11-BCL-2 G101V, RS4;11-BCL-2 D103E, RS4;11-BCL-2 D103Y, and RS4;11-BCL-2 F104L) was developed. In this assay, the inhibition of BCL-2 mutation was reflected by the inhibition of cell proliferation of engineered RS4;11 cells. Cells were plated into 96-well plates at optimized cell density (RS4;11-BCL-2 G101V: 5000 cells/well; RS4;11-BCL-2 D103E: 7500 cells/well; RS4;11-BCL-2 D103Y: 7500 cells/well; RS4;11-BCL-2 F104L: 5000 cells/well). Plates were incubated at 37° C., with 5% CO2 for 4 h (RS4;11-BCL-2 G101V, RS4;11-BCL-2 F104L) and 24 h (RS4;11-BCL-2 D103E, RS4;11-BCL-2 D103Y), respectively. Compounds were serially diluted and added to the plates with the final concentrations of 10000, 3333.3, 1111.1, 370.4, 123.5, 41.2, 13.7, 4.6 and 1.5 nM. Plates were incubated at 37° C., with 5% CO2 for 120 h (RS4; 11-BCL-2 G101V, RS4; 11-BCL-2 F104L) and 72 h (RS4;11-BCL-2 D103E, RS4;11-BCL-2 D103Y), respectively. 20 μl MTS was added into each well and the plates were incubated at 37° C., with 5% CO2 exactly for 2 h. The absorbance was measured by a microplate reader at 490 nm. IC50 values were calculated using GraphPad Prism 8.0 software.

Row | pIC50 [2] | pIC50 [3] | Structure (SMILES) | pIC50 [1]
1 | 9.00 | 8.52 | CCOc1nc2[nH]cc(F)c2cc1Oc1cc(N2CCC3(CC2)CC(N2CCN(Cc4ccc(OC)c(OC)c4)C[C@H]2c2ccccc2C(C)C)C3)ccc1C(=O)NS(=O)(=O)c1cnc(NC[C@H]2CC[C@](C)(O)CC2)c([N+](=O)[O-])c1 [Example 8, 4-(2-((R)-4-(3,4-dimethoxybenzyl)-2-(2-isopropylphenyl)piperazin-1-yl)-7-azaspiro[3.5]nonan-7-yl)-2-((6-ethoxy-3-fluoro-1H-pyrrolo[2,3-b]pyridin-5-yl)oxy)-N-((6-((((1r,4r)-4-hydroxy-4-methylcyclohexyl)methyl)amino)-5-nitropyridin-3-yl)sulfonyl)benzamide] | 9.00
2 | 9.00 | 9.00 | CCOc1nc2[nH]cc(F)c2cc1Oc1cc(N2CCC3(CC2)CC(N2CCN(Cc4ccc(OC)nc4)C[C@H]2c2ccccc2C(C)C)C3)ccc1C(=O)NS(=O)(=O)c1cnc(NC[C@H]2CC[C@](C)(O)CC2)c([N+](=O)[O-])c1 [Example 120, 2-((6-ethoxy-3-fluoro-1H-pyrrolo[2,3-b]pyridin-5-yl)oxy)-N-((6-((((1r,4r)-4-hydroxy-4-methylcyclohexyl)methyl)amino)-5-nitropyridin-3-yl)sulfonyl)-4-(2-((R)-2-(2-isopropylphenyl)-4-((6-methoxypyridin-3-yl)methyl)piperazin-1-yl)-7-azaspiro[3.5]nonan-7-yl)benzamide] | 9.00
3 | 9.00 | 8.52 | COc1ccc(CN2CCN(C3CC4(CCN(c5ccc(C(=O)NS(=O)(=O)c6cnc(NC[C@H]7CC[C@](C)(O)CC7)c([N+](=O)[O-])c6)c(Oc6cc7c(F)c[nH]c7nc6OC)c5)CC4)C3)[C@H](c3ccccc3C(C)C)C2)nc1 [Example 122, 2-((3-fluoro-6-methoxy-1H-pyrrolo[2,3-b]pyridin-5-yl)oxy)-N-((6-((((1r,4r)-4-hydroxy-4-methylcyclohexyl)methyl)amino)-5-nitropyridin-3-yl)sulfonyl)-4-(2-((R)-2-(2-isopropylphenyl)-4-((5-methoxypyridin-2-yl)methyl)piperazin-1-yl)-7-azaspiro[3.5]nonan-7-yl)benzamide] | 9.00
4 | 9.00 | 9.00 | CCOc1nc2[nH]cc(F)c2cc1Oc1cc(N2CCC3(CC2)CC(N2CCN(CC)C[C@H]2c2ccccc2C(C)C)C3)ccc1C(=O)NS(=O)(=O)c1cnc(NC[C@H]2CC[C@](C)(O)CC2)c([N+](=O)[O-])c1 [Example 141, 2-((6-ethoxy-3-fluoro-1H-pyrrolo[2,3-b]pyridin-5-yl)oxy)-4-(2-((R)-4-ethyl-2-(2-isopropylphenyl)piperazin-1-yl)-7-azaspiro [3.5]nonan-7-yl)-N-((6-((((1r,4r)-4-hydroxy-4-methylcyclohexyl)methyl)amino)-5-nitropyridin-3-yl)sulfonyl)benzamide] | 9.00
5 | 9.00 | 9.00 | COCCN1CCN(C2CC3(CCN(c4ccc(C(=O)NS(=O)(=O)c5cnc(NC[C@H]6CC[C@](C)(O)CC6)c([N+](=O)[O-])c5)c(Oc5cnc6[nH]cc(F)c6c5)c4)CC3)C2)[C@H](c2ccccc2C(C)C)C1 [Example 203, 2-((3-fluoro-1H-pyrrolo[2,3-b]pyridin-5-yl)oxy)-N-((6-((((1r,4r)-4-hydroxy-4-methylcyclohexyl)methyl)amino)-5-nitropyridin-3-yl)sulfonyl)-4-(2-((R)-2-(2-isopropylphenyl)-4-(2-methoxyethyl)piperazin-1-yl)-7-azaspiro[3.5]nonan-7-yl)benzamide] | 9.00

More lines, now with the values behind:

Row | Structure (SMILES) | pIC50 [2] | pIC50 [3] | pIC50 [1]
6 | COc1cc(CN2CCN(C3CC4(CCN(c5ccc(C(=O)NS(=O)(=O)c6cnc(NC[C@H]7CC[C@](C)(O)CC7)c([N+](=O)[O-])c6)c(Oc6cnc7[nH]cc(F)c7c6)c5)CC4)C3)[C@H](c3ccccc3C(C)C)C2)ccc1C1CC1 [Example 73, 4-(2-((R)-4-(4-cyclopropyl-3-methoxybenzyl)-2-(2-isopropylphenyl)piperazin-1-yl)-7-azaspiro[3.5]nonan-7-yl)-2-((3-fluoro-1H-pyrrolo[2,3-b]pyridin-5-yl)oxy)-N-((6-((((1r,4r)-4-hydroxy-4-methylcyclohexyl)methyl)amino)-5-nitropyridin-3-yl)sulfonyl)benzamide] | 9.00 | 8.52 | 9.00
7 | COc1nc2[nH]cc(F)c2cc1Oc1cc(N2CCC3(CC2)CC(N2CCN(Cc4cnn(C5CC5)c4)C[C@H]2c2ccccc2C(C)C)C3)ccc1C(=O)NS(=O)(=O)c1cnc(NC[C@H]2CC[C@](C)(O)CC2)c([N+](=O)[O-])c1 [Example 133, 4-(2-((R)-4-((1-cyclopropyl-1H-pyrazol-4-yl)methyl)-2-(2-isopropylphenyl)piperazin-1-yl)-7-azaspiro[3.5]nonan-7-yl)-2-((3-fluoro-6-methoxy-1H-pyrrolo[2,3-b]pyridin-5-yl)oxy)-N-((6-((((1r,4r)-4-hydroxy-4-methylcyclohexyl)methyl)amino)-5-nitropyridin-3-yl)sulfonyl)benzamide] | 9.00 | 8.70 | 9.00
8 | COc1cc(CN2CCN(C3CC4(CCN(c5ccc(C(=O)NS(=O)(=O)c6cnc(NC[C@H]7CC[C@](C)(O)CC7)c([N+](=O)[O-])c6)c(Oc6cnc7[nH]cc(F)c7c6)c5)CC4)C3)[C@H](c3ccccc3C(C)C)C2)ccn1 [Example 243, 2-((3-fluoro-1H-pyrrolo[2,3-b]pyridin-5-yl)oxy)-N-((6-((((1r,4r)-4-hydroxy-4-methylcyclohexyl)methyl)amino)-5-nitropyridin-3-yl)sulfonyl)-4-(2-((R)-2-(2-isopropylphenyl)-4-((2-methoxypyridin-4-yl)methyl)piperazin-1-yl)-7-azaspiro[3.5]nonan-7-yl)benzamide] | 9.00 | 9.00 | 9.00
9 | COc1ccc(CN2CCN(C3CC4(CCN(c5ccc(C(=O)NS(=O)(=O)c6cnc(NC[C@H]7CC[C@](C)(O)CC7)c([N+](=O)[O-])c6)c(Oc6cnc7[nH]cc(F)c7c6)c5)CC4)C3)[C@H](c3ccccc3C(C)C)C2)c2nc(C)oc12 [Example 244, 2-((3-fluoro-1H-pyrrolo[2,3-b]pyridin-5-yl)oxy)-N-((6-((((1r,4r)-4-hydroxy-4-methylcyclohexyl)methyl)amino)-5-nitropyridin-3-yl)sulfonyl)-4-(2-((R)-2-(2-isopropylphenyl)-4-((7-methoxy-2-methylbenzo[d]oxazol-4-yl)methyl)piperazin-1-yl)-7-azaspiro[3.5]nonan-7-yl)benzamide] | 9.00 | 9.00 | 9.00
10 | CC(C)c1ccccc1[C@@H]1CN(Cc2cnn(C3CC3)c2)CCN1C1CC2(CCN(c3ccc(C(=O)NS(=O)(=O)c4cnc(NC[C@H]5CC[C@](C)(O)CC5)c([N+](=O)[O-])c4)c(Oc4cnc5[nH]cc(F)c5c4)c3)CC2)C1 [Example 247, 4-(2-((R)-4-((1-cyclopropyl-1H-pyrazol-4-yl)methyl)-2-(2-isopropylphenyl)piperazin-1-yl)-7-azaspiro[3.5]nonan-7-yl)-2-((3-fluoro-1H-pyrrolo[2,3-b]pyridin-5-yl)oxy)-N-((6-((((1r,4r)-4-hydroxy-4-methylcyclohexyl)methyl)amino)-5-nitropyridin-3-yl)sulfonyl)benzamide] | 9.00 | 9.00 | 9.00
